Laboratory results: paper PMC7024208, “In Silico and In Vitro Experimental Studies of New Dibenz[b,e]oxepin-11(6H)one O-(arylcarbamoyl)-oximes Designed as Potential Antimicrobial Agents” (Molecules, 2020)
Values after ≈ are worked out from the molar mass of the structure shown. Read-outs that look alike come from different tables or passages of the source.

Experiments:
E. coli ATCC 25922 [1] = assay: Qualitative antimicrobial screening, adapted disk diffusion; type: cell-based, Escherichia coli; design: zone of inhibition: dose or concentration left out as unconfirmed; conditions: for zone of inhibition at 5000 µg/mL (stock): ATCC25922, read-out: growth inhibition diameter
Method: (§1) The antimicrobial activities of the synthesized compounds were determined against ATCC reference and clinical microbial strains, i.e., Bacillus subtilis ATCC 6633, Staphylococcus aureus ATCC 25923, Escherichia coli ATCC 25922, Klebsiella pneumoniae 350, Pseudomonas aeruginosa 1671 and Candida albicans ATCC 10231, using as positive controls the antibiotic ticarcillin and the antifungal agent fluconazole. Microbial suspensions of 1.5 × 10^8 CFU/mL corresponding to 0.5 McFarland density obtained from 15–18 h bacterial cultures developed on solid media were used in our experiments. The antimicrobial activity was tested on Mueller-Hinton Agar (MHA) medium, while a Yeast Peptone Glucose (YPG) medium was used in case of C. albicans. The obtained compounds were solubilized in DMSO and the starting stock solution was of 5000 μg/mL concentration. The qualitative screening was performed by an adapted disk diffusion method as previously reported.

E. coli ATCC 25922 [2] = assay: Antibiofilm activity (MBEC), micro-titer method on plastic inert substratum; type: cell-based, Escherichia coli; conditions: E. coli ATCC 25922 biofilm on plastic substratum
Method: (§2) The assessment of the new compounds influence on the microbial ability to colonize the plastic inert substratum was performed by the micro-titer method, following previously described protocols. The absorbance at 490 nm was measured with an LB 911 ELISA reader (Apollo, Berthold Technologies GmbH & Co. KG, Bad Wildbad, Germany). All biological experiments were performed in triplicates.

S. aureus ATCC 25923 [3] = assay: Qualitative antimicrobial screening, adapted disk diffusion; type: cell-based, Staphylococcus aureus; design: zone of inhibition: dose or concentration left out as unconfirmed; conditions: Staphylococcus aureus; for zone of inhibition at 5000 µg/mL (stock): ATCC25923, S. aureus ATCC 25923, adapted diffusion assay, read-out: growth inhibition diameter
Method: as §1

K. pneumoniae 1771 = assay: as above; type: cell-based, Klebsiella pneumoniae; design: zone of inhibition: dose or concentration left out as unconfirmed; conditions: for zone of inhibition at 5000 µg/mL (stock): Klebsiella pneumoniae, K. pneumoniae 1771, adapted diffusion assay, read-out: growth inhibition diameter
S. aureus ATCC 25923 [4] = assay: Antibiofilm activity (MBEC), micro-titer method on plastic inert substratum; type: cell-based, Staphylococcus aureus; conditions: S. aureus ATCC 25923 biofilm on plastic substratum
Method: as §2

B. subtilis ATCC 6633 [5] = assay: as above; type: cell-based, Bacillus subtilis; conditions: B. subtilis ATCC 6633 biofilm on plastic substratum
Method: as §2

B. subtilis ATCC 6633 [6] = assay: MIC by liquid medium microdilution; type: cell-based, Bacillus subtilis; conditions: B. subtilis ATCC 6633, 24 h at 37 °C
Method: as §1
(§3) The quantitative assay of the antimicrobial activity was performed by the liquid medium microdilution method, in 96 multi-well plates, in order to establish the minimal inhibitory concentration (MIC). In this purpose, serial two-fold dilutions of the compounds ranging between 5000 and 4.8 µg/mL were performed in a 200 µL volume of broth and each well was seeded with 50 µL of microbial inoculum. Sterility control (wells containing only culture medium) and culture controls (wells containing culture medium seeded with the microbial inoculum) were used. The influence of the DMSO solvent was also quantified in a series of wells containing DMSO [36], diluted accordingly with the dilution scheme used for the compounds and for the positive controls.

P. aeruginosa ATCC 27853 = assay: Qualitative antimicrobial screening, adapted disk diffusion; type: cell-based; design: zone of inhibition: dose or concentration left out as unconfirmed; conditions: Pseudomonas aeruginosa; for zone of inhibition at 5000 µg/mL (stock): ATCC27853, P. aeruginosa ATCC 27853, adapted diffusion assay, read-out: growth inhibition diameter
B. subtilis ATCC 6633 [7] = assay: as above; type: cell-based, Bacillus subtilis; design: zone of inhibition: dose or concentration left out as unconfirmed; conditions: for zone of inhibition at 5000 µg/mL (stock): ATCC6633, read-out: growth inhibition diameter
Method: as §1

S. aureus ATCC 25923 [8] = assay: MIC by liquid medium microdilution; type: cell-based; conditions: Staphylococcus aureus
Method: as §1, §3

E. coli ATCC 25922 [9] = assay: MIC by liquid medium microdilution; type: cell-based; conditions: Escherichia coli
Method: as §1, §3

[10] = Cytotoxicity, CellTiter Assay; type: cell-based; conditions: human, HCT8 cells, 400–10 µg/mL tested
Method: (§4) For the in vitro assessment of the cytotoxic effect, the HCT8 cells and the CellTiter Assay kit (Promega, Madison, WI, USA) and Annexin V-FITC Apoptosis Detection Kit I (BD Bioscience Pharmingen, Franklin Lakes, NJ, USA) were used. Briefly, for CellTiter Assay, 1 × 10^4 cells/well were plated in 96 well plate and 24 h after, were treated with the new compound at final concentration between 400 µg/mL–10 µg/mL. The viability was evaluated after 24 h by adding CellTiter aqueous solution and reading to spectrophotometer according to the manufacturer indications. The IC50 were calculated from the percent of viability reported to untreated cells using on line tools https://www.aatbio.com/tools/ic50-calculator. For Annexin V-FITC Apoptosis Detection Kit I, 5 × 10^5 cells were seeded in 3.5 cm diameter Petri dish and treated with 100 µg/mL compounds solution for 24 h. The total cells were resuspended in 100 µL of binding buffer, and stained with 5 µL Annexin V-FITC and 5 µL propidium iodide for 10 min in dark. At least 10,000 events from each sample were acquired using a flow cytometer (Beckman Coulter, Indianapolis, IN, USA). The percentage of cells affected by the treatment was determined by subtracting the percentage of apoptotic/necrotic cells in the untreated population from percentage of apoptotic cells in the treated population.

C. albicans ATCC 10231 [11] = assay: Qualitative antimicrobial screening, adapted disk diffusion; type: cell-based, Candida albicans; design: zone of inhibition: dose or concentration left out as unconfirmed
Method: as §1

[12] = Annexin V-FITC/propidium iodide apoptosis analysis by flow cytometry; type: cell-based; conditions: human, HCT8 cells, Annexin V-FITC/PI, read-out: viable cells (Q4)
Method: as §4

C. albicans ATCC 10231 [13] = assay: MIC by liquid medium microdilution; type: cell-based; conditions: Candida albicans
Method: as §1, §3

C. albicans ATCC 10231 [14] = assay: Antibiofilm activity (MBEC), micro-titer method on plastic inert substratum; type: cell-based, Candida albicans; conditions: C. albicans ATCC 10231 biofilm on plastic substratum
Method: as §2

[15] = Escherichia coli, E. coli ATCC 25922, adapted diffusion assay
[16] = Bacillus subtilis, ATCC6633, 24 h, read-out: MIC
[17] = Bacillus subtilis, B. subtilis ATCC 6633, adapted diffusion assay
[18] = ATCC25923, S. aureus ATCC 25923, 24 h at 37 °C, read-out: MIC
[19] = ATCC25922, E. coli ATCC 25922, 24 h at 37 °C, read-out: MIC

SMILES	zone of inhibition at 5000 µg/mL (stock) (E. coli ATCC 25922 [1]; [15])	zone of inhibition at 5000 µg/mL (stock) (S. aureus ATCC 25923 [3])	zone of inhibition at 5000 µg/mL (stock) (K. pneumoniae 1771)	MBEC (S. aureus ATCC 25923 [4])	MIC (B. subtilis ATCC 6633 [6]; [16])	zone of inhibition at 5000 µg/mL (stock) (P. aeruginosa ATCC 27853)	zone of inhibition at 5000 µg/mL (stock) (B. subtilis ATCC 6633 [7]; [17])	MIC (S. aureus ATCC 25923 [8]; [18])	MIC (E. coli ATCC 25922 [9]; [19])	IC50 at 24 h [10]	viability at 24 h, 100 µg/mL [12]	also measured
CC1(C)S[C@@H]2[C@H](NC(=O)[C@H](C(=O)O)c3ccsc3)C(=O)N2[C@H]1C(=O)O [Ticarcillin, ticarcillin, reference compound]	24 mm	21 mm	0 mm	156 µg/mL	78 µg/mL (≈ 203 µM)	17 mm	15 mm	9.76 µg/mL (≈ 25.4 µM)	19.5 µg/mL (≈ 50.7 µM)			MBEC (E. coli ATCC 25922 [2]): 625 µg/mL; MBEC (B. subtilis ATCC 6633 [5]): 156 µg/mL
O=C(Nc1ccc(F)cc1)ON=C1c2ccccc2COc2ccccc21 [Compound 7b, 6,11-Dihydrodibenz[b,e]oxepin-11(6H)one O-(4-fluorophenyl-carbamoyl)oxime]				19.5 µg/mL						252 µg/mL (≈ 695 µM)	84.3%	zone of inhibition (E. coli ATCC 25922 [1]; Escherichia coli, ATCC25922, read-out: growth inhibition diameter): 0 mm; zone of inhibition (S. aureus ATCC 25923 [3]; ATCC25923, read-out: growth inhibition diameter): 0 mm; zone of inhibition (K. pneumoniae 1771; Klebsiella pneumoniae, 1771, read-out: growth inhibition diameter): 0 mm; MIC (B. subtilis ATCC 6633 [6]): 4.8 µg/mL (≈ 13.2 µM); MIC (B. subtilis ATCC 6633 [6]; Bacillus subtilis, ATCC6633, 24 h): 4.8 to 39 µg/mL (≈ 13.2 to 108 µM); zone of inhibition (C. albicans ATCC 10231 [11]; Candida albicans, ATCC10231, read-out: growth inhibition diameter): 0 mm; zone of inhibition (P. aeruginosa ATCC 27853; ATCC27853, read-out: growth inhibition diameter): 0 mm; growth inhibition diameter (B. subtilis ATCC 6633 [7]; B. subtilis ATCC 6633, adapted diffusion assay): active exclusively on B. subtilis; zone of inhibition (B. subtilis ATCC 6633 [7]; Bacillus subtilis, ATCC6633, read-out: growth inhibition diameter): 7 mm; MIC (S. aureus ATCC 25923 [8]; ATCC25923, 24 h): > 5000 µg/mL; MIC (C. albicans ATCC 10231 [13]; ATCC10231, 24 h): > 5000 µg/mL; MIC (E. coli ATCC 25922 [9]; ATCC25922, 24 h): > 5000 µg/mL
O=C(Nc1cccc(Cl)c1)ON=C1c2ccccc2COc2ccccc21 [Compound 7c, 6,11-Dihydrodibenz[b,e]oxepin-11(6H)one O-(3-chlorophenyl-carbamoyl)oxime]	4 mm	0 mm	0 mm		> 5000 µg/mL	0 mm	0 mm	> 5000 µg/mL	1250 µg/mL (≈ 3300 µM)	304 µg/mL (≈ 803 µM)	89.8%	growth inhibition diameter (E. coli ATCC 25922 [1]; E. coli ATCC 25922, adapted diffusion assay): active against; growth inhibition diameter (C. albicans ATCC 10231 [11]; C. albicans ATCC 10231, adapted diffusion assay): active against; zone of inhibition at 5000 µg/mL (stock) (C. albicans ATCC 10231 [11]; Candida albicans, ATCC10231, C. albicans ATCC 10231, adapted diffusion assay, read-out: growth inhibition diameter): 8 mm; MBEC (C. albicans ATCC 10231 [14]): 4.8 µg/mL; MIC (C. albicans ATCC 10231 [13]; ATCC10231, C. albicans ATCC 10231, 24 h at 37 °C, read-out: MIC): 1250 µg/mL (≈ 3300 µM)
